Eleven molecules from patent US20250230193A1, “CYCLIC COMPOUND HAVING SELECTIVE KRAS INHIBITORY EFFECT ON HRAS AND NRAS” (CHUGAI SEIYAKU KABUSHIKI KAISHA, priority 2022, published 2025) can be followed below.

The structures appear in SMILES notation. Where a SMILES comes first, the peptide text is derived from it. Bridges are numbered along the chain shown (N, C = ends). [ ]: non-standard residue; d: D form. The star is where a group is joined. hPhe(3-Cl-4-CF3) = N[C@@H](CCc1ccc(C(F)(F)F)c(Cl)c1)C(=O)O; NPrPhe(4-CF3) = CCCN[C@@H](Cc1ccc(C(F)(F)F)cc1)C(=O)O; NMeGly(cPent) = CN[C@H](C(=O)O)C1CCCC1; NMeChg = CN[C@H](C(=O)O)C1CCCCC1; NMeD = CN[C@@H](CC(=O)O)C(=O)O; NMeL = CN[C@@H](CC(C)C)C(=O)O; Morpholide = C1CN(*)CCO1; Piperidide = C1CCN(*)CC1; Ac4c = NC1(C(=O)O)CCC1; Sar = CNCC(=O)O

The target in experiment [1] is GDP-bound HRAS wild-type protein (Homo sapiens, UniProt P01112). The experiment in a line: Binding to HRAS by surface plasmon resonance (SPR), Single Cycle Kinetics. The conditions noted are these: KD ratio, GDP-bound HRAS wild-type vs GDP-bound KRAS wild-type, SPR. In general terms: Surface plasmon resonance follows binding to a sensor surface in real time, without labels.

Experiment [2] has as its target GDP-bound NRAS wild-type protein (Homo sapiens, UniProt P01111). The experiment in a line: Binding to NRAS by surface plasmon resonance (SPR), Single Cycle Kinetics. The conditions noted are these: KD ratio, GDP-bound NRAS wild-type vs GDP-bound KRAS wild-type, SPR.

Chain of GDP-bound NRAS wild-type protein (P01111 whole entry): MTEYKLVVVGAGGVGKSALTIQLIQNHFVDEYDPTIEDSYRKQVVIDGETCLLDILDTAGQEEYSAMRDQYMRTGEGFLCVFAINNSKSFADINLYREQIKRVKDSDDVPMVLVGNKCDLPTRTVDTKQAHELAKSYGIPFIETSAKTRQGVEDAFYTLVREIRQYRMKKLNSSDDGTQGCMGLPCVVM
Chain of GDP-bound HRAS wild-type protein (P01112 whole entry): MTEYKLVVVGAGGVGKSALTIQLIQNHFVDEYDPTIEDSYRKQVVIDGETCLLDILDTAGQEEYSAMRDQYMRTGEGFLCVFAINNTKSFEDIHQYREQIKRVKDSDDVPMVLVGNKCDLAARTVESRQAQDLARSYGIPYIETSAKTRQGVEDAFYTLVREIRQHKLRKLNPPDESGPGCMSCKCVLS

Regarding `CCC[C@H]1C(=O)N[C@@H]([C@@H](C)CC)C(=O)N[C@@H](C)C(=O)N(C)[C@H]2C/C=C\CCN(C2=O)[C@@H](Cc2ccc(C(F)(F)F)cc2)C(=O)N(C)CC(=O)N[C@@H](CCc2cc(F)c(C(F)(F)F)c(F)c2)C(=O)N2C[C@H](OCC)C[C@H]2C(=O)NC2(CC(C)(C)C2)C(=O)N(C)[C@@H](C2CCCC2)C(=O)N(C)[C@H](C(=O)N(C)C)CC(=O)N1C` [PP1927], in experiment [1], the “HRAS/KRAS (ratio of KD value for HRAS to KD value for KRAS)” value was “A (a compound having 10 or more and less than 20 is denoted as A)”. Besides, the “NRAS/KRAS (ratio of KD value for NRAS to KD value for KRAS)” value in experiment [2] is “A (a compound having 10 or more and less than 20 is denoted as A)”.

`CCCN1C(=O)CN(C)C(=O)CN(C)C(=O)[C@H]([C@@H](C)CC)NC(=O)[C@H](CC(C)C)N(C)C(=O)C[C@@H](C(=O)N2CCOCC2)N(C)C(=O)[C@H](C2CCCCC2)N(C)C(=O)C2(CCC2)NC(=O)[C@@H]2CCCN2C(=O)[C@H](CCc2ccc(C(F)(F)F)c(Cl)c2)NC(=O)CN(C)C(=O)[C@@H]1Cc1ccc(C(F)(F)F)cc1` [PP1928] ([NMeL]I[Sar][Sar][NPrPhe(4-CF3)][Sar][hPhe(3-Cl-4-CF3)]P[Ac4c][NMeChg][NMeD]-Morpholide; lactam N-11): the “HRAS/KRAS (ratio of KD value for HRAS to KD value for KRAS)” value in experiment [1] was “B (a compound having 3 or more and less than 10 is denoted as B)”. Moreover, the “NRAS/KRAS (ratio of KD value for NRAS to KD value for KRAS)” value in experiment [2] was “B (a compound having 3 or more and less than 10 is denoted as B)”.

Take `CCCN1C(=O)CN(C)C(=O)CN(C)C(=O)[C@H]([C@@H](C)CC)NC(=O)[C@H](CC(C)C)N(C)C(=O)C[C@@H](C(=O)N2CCCCC2)N(C)C(=O)[C@H](C2CCCC2)N(C)C(=O)C2(CCC2)NC(=O)[C@@H]2CCCN2C(=O)[C@H](CCc2ccc(C(F)(F)F)c(Cl)c2)NC(=O)CN(C)C(=O)[C@@H]1Cc1ccc(C(F)(F)F)cc1` [PP1930] ([NMeL]I[Sar][Sar][NPrPhe(4-CF3)][Sar][hPhe(3-Cl-4-CF3)]P[Ac4c][NMeGly(cPent)][NMeD]-Piperidide; lactam N-11): in experiment [1], the “HRAS/KRAS (ratio of KD value for HRAS to KD value for KRAS)” value is “C (A compound having a KD ratio of 0.1 or more and less than 3 is denoted as C)”. The “NRAS/KRAS (ratio of KD value for NRAS to KD value for KRAS)” value in experiment [2] was “B (a compound having 3 or more and less than 10 is denoted as B)”.

Regarding `CCO[C@@H]1C[C@H]2C(=O)NC3(CC(C)(C)C3)C(=O)N(C)[C@@H](C3CCCC3)C(=O)N(C)[C@H](C(=O)N(C)C)CC(=O)N(C)[C@@H](CC(C)C)C(=O)N[C@@H]([C@@H](C)CC)C(=O)N(C)CC(=O)N(C)[C@H]3C/C=C\CCN(C3=O)[C@@H](Cc3ccc(C(F)(F)F)cc3)C(=O)N(C)CC(=O)N[C@@H](CCc3ccc(C(F)(F)F)c(F)c3)C(=O)N2C1` [PP1931], in experiment [1], the “HRAS/KRAS (ratio of KD value for HRAS to KD value for KRAS)” value is “B (a compound having 3 or more and less than 10 is denoted as B)”. Further, the “NRAS/KRAS (ratio of KD value for NRAS to KD value for KRAS)” value in experiment [2] is “A (a compound having 10 or more and less than 20 is denoted as A)”.

Turning to `CCC[C@H]1C(=O)N[C@@H]([C@@H](C)CC)C(=O)N(C)CC(=O)N(C)[C@H]2C/C=C\CCN(C2=O)[C@@H](Cc2ccc(C(F)(F)F)cc2)C(=O)N(C)CC(=O)N[C@@H](CCc2ccc(Cl)c(Cl)c2)C(=O)N2C[C@H](OCC)C[C@H]2C(=O)NC2(CC(C)(C)C2)C(=O)N(C)[C@@H](C2CCCC2)C(=O)N(C)[C@H](C(=O)N(C)C)CC(=O)N1C` [PP1932], the “HRAS/KRAS (ratio of KD value for HRAS to KD value for KRAS)” value in experiment [1] is “A (a compound having 10 or more and less than 20 is denoted as A)”. Also, in experiment [2], the “NRAS/KRAS (ratio of KD value for NRAS to KD value for KRAS)” value was “A (a compound having 10 or more and less than 20 is denoted as A)”.

Regarding `CCC[C@H]1C(=O)N[C@@H]([C@@H](C)CC)C(=O)N(C)CC(=O)N(C)[C@H]2C/C=C\CCN(C2=O)[C@@H](Cc2ccc(C(F)(F)F)cc2)C(=O)N(C)CC(=O)N[C@@H](CCc2cc(F)c(C(F)(F)F)c(F)c2)C(=O)N(C)[C@@H](C)C(=O)NC2(CC(C)(C)C2)C(=O)N(C)[C@@H](C2CCCC2)C(=O)N(C)[C@H](C(=O)N(C)C)CC(=O)N1C` [PP1934], the “HRAS/KRAS (ratio of KD value for HRAS to KD value for KRAS)” value in experiment [1] is “A (a compound having 10 or more and less than 20 is denoted as A)”. Further, the “NRAS/KRAS (ratio of KD value for NRAS to KD value for KRAS)” value in experiment [2] was “A (a compound having 10 or more and less than 20 is denoted as A)”.

Turning to `CC[C@H](C)[C@@H]1NC(=O)[C@H](CC)N(C)C(=O)C[C@@H](C(=O)N(C)C)N(C)C(=O)[C@H](C2CCCC2)N(C)C(=O)C2(CC(C)(C)C2)NC(=O)[C@H](CC)N(C)C(=O)[C@H](CCc2cc(F)c(C(F)(F)F)c(F)c2)NC(=O)CN(C)C(=O)[C@H](Cc2ccc(C(F)(F)F)cc2)N2CC/C=C\C[C@@H](C2=O)N(C)C(=O)CN(C)C1=O` [PP1935], the “HRAS/KRAS (ratio of KD value for HRAS to KD value for KRAS)” value in experiment [1] is “A (a compound having 10 or more and less than 20 is denoted as A)”. Moreover, the “NRAS/KRAS (ratio of KD value for NRAS to KD value for KRAS)” value in experiment [2] is “A (a compound having 10 or more and less than 20 is denoted as A)”.

As for `CCC[C@H]1C(=O)N[C@@H]([C@@H](C)CC)C(=O)N(C)CC(=O)N(C)[C@H]2C/C=C\CCN(C2=O)[C@@H](Cc2ccc(C(F)(F)F)cc2)C(=O)N(C)CC(=O)N[C@@H](CCc2cc(F)c(C(F)(F)F)c(F)c2)C(=O)N(C)[C@@H](COC)C(=O)NC2(CC(C)(C)C2)C(=O)N(C)[C@@H](C2CCCC2)C(=O)N(C)[C@H](C(=O)N(C)C)CC(=O)N1C` [PP1936], in experiment [1], the “HRAS/KRAS (ratio of KD value for HRAS to KD value for KRAS)” value is “A (a compound having 10 or more and less than 20 is denoted as A)”. Further, the “NRAS/KRAS (ratio of KD value for NRAS to KD value for KRAS)” value in experiment [2] was “AA (a compound having 20 or more is denoted as AA)”.

For `CCO[C@@H]1C[C@H]2C(=O)NC(C)(C)C(=O)N(C)[C@@H](C3CCCC3)C(=O)N(C)[C@H](C(=O)N(C)CC)CC(=O)N(C)[C@@H](CC(C)C)C(=O)N[C@@H]([C@@H](C)CC)C(=O)N(C)CC(=O)N(C)[C@H]3C/C=C\CCN(C3=O)[C@@H](Cc3ccc(C(F)(F)F)cc3)C(=O)N(C)CC(=O)N[C@@H](CCc3cc(F)c(C(F)(F)F)c(F)c3)C(=O)N2C1` [PP1937], the “HRAS/KRAS (ratio of KD value for HRAS to KD value for KRAS)” value in experiment [1] was “A (a compound having 10 or more and less than 20 is denoted as A)”. In addition, the “NRAS/KRAS (ratio of KD value for NRAS to KD value for KRAS)” value in experiment [2] is “A (a compound having 10 or more and less than 20 is denoted as A)”.

On to `CCCN(C)C(=O)[C@@H]1CC(=O)N(C)[C@@H](CC(C)C)C(=O)N[C@@H]([C@@H](C)CC)C(=O)N(C)CC(=O)N(C)[C@H]2C/C=C\CCN(C2=O)[C@@H](Cc2ccc(C(F)(F)F)cc2)C(=O)N(C)CC(=O)N[C@@H](CCc2cc(F)c(C(F)(F)F)c(F)c2)C(=O)N2C[C@H](OCC)C[C@H]2C(=O)NC2(COC2)C(=O)N(C)[C@@H](C2CCCC2)C(=O)N1C` [PP1938], for which, in experiment [1], the “HRAS/KRAS (ratio of KD value for HRAS to KD value for KRAS)” value was “A (a compound having 10 or more and less than 20 is denoted as A)”. The “NRAS/KRAS (ratio of KD value for NRAS to KD value for KRAS)” value in experiment [2] is “AA (a compound having 20 or more is denoted as AA)”.

For `CCC[C@H]1C(=O)N[C@@H]([C@@H](C)CC)C(=O)N(C)CC(=O)N(C)[C@H]2C/C=C\CCN(C2=O)[C@@H](Cc2ccc(C(F)(F)F)cc2)C(=O)N(C)CC(=O)N[C@@H](CCc2cc(F)c(C(F)(F)F)c(F)c2)C(=O)N2C[C@H](OCC)C[C@H]2C(=O)NC2(CC(C)(C)C2)C(=O)N(C)[C@@H]([C@@H](C)CC)C(=O)N(C)[C@H](C(=O)N(C)C)CC(=O)N1C` [PP1941], the “HRAS/KRAS (ratio of KD value for HRAS to KD value for KRAS)” value in experiment [1] is “A (a compound having 10 or more and less than 20 is denoted as A)”. Also, the “NRAS/KRAS (ratio of KD value for NRAS to KD value for KRAS)” value in experiment [2] was “A (a compound having 10 or more and less than 20 is denoted as A)”.
